According to patent publication US6979747B2, “Antioxidants, preparation processes and their uses” (Centre National de la Recherche Scientifique (CNRS), priority 1999, dated 2005):

Columns and labels:
HIV-1/Ba-L [1] = test: Antiviral activity in human spleen macrophages infected with HIV-1/Ba-L; format: cell-based; conditions: Human immunodeficiency virus 1, BAL, Macrophage, read-out: concentration that decreases HIV replication by 50%
From the text: The spleen is dissected and sieved and then the mononuclear cells are isolated using a density gradient, on a Ficoll cushion. The monocytes/macrophages are obtained by adherence to the plastic. The monocytes were allowed to differentiate into macrophages for 7 days, at which time they were infected.
Retroviral replication within this cell population, and thus the effectiveness of a molecule such as I-152, is conditioned partly by the level of cell differentiation. It was therefore important to make sure of the antiviral effectiveness of I-152 in monocytes/macrophages with a degree of maturation which can be different from that of MDMs. We have thus evaluated the antiviral activity of I-152 and its ability to regenerate the intracellular level of GSH in spleen macrophages. In this cell populations, the HIV-1/Ba-L strain also replicates at high […]. […] This is because the concentration of 38 μM decreases HIV replication by 50% in this spleen cell population (table III). […] It should be noted that, in the spleen macrophages, as in the macrophages derived from blood monocytes, infection by HIV leads to a deficiency of GSH (MDM; FIG. 16).

TNF-α = test: Synthesis of TNF-α in MDMs stimulated with LPS and IFN-γ; format: cell-based, human; conditions: MDMs stimulated with LPS (1 μg/ml) and IFN-γ (100 IU/ml)
Experimental: The synthesis of tumor necrosis factor (TNF-α) was […] in the MDM culture supernatants using the calorimetric kit sold by Cayman.
(§1) The compound I-152 and its derivatives are prepared extemporaneously by being dissolved in dimethyl sulfoxide (DMSO) at the concentration of 100 mM. They are subsequently stored at −20° C. after having been diluted 10 fold in phosphate buffer (PBS).
Tumor necrosis factor (TNF-α), like the oxygen-comprising or nitrogen-comprising radical components, plays a major role in the apoptotic processes associated with infection the HIV. Furthermore, the radical components can promote the synthesis of this proinflammatory cytokine. For this reason, the effects of I-152 in decreasing the synthesis of TNF-α were thus looked for in MDMs stimulated by a bacterial lipopolysaccharide and interferon (IFN-γ).

HIV-1/Ba-L [2] = test: Combination of I-152 with AZT in MDMs infected with HIV-1/Ba-L (Chou combination index); format: cell-based; conditions: I-152 combined with AZT
Experimental: Viral replication was measured by assaying the reverse transcriptase activity in culture supernatants using the RetroSys kit from Innovagen, following the recommendations of the company.
as §1
The pro-GSH compounds of the “I-152 family” are preferably administered as adjuvants therapeutic for current antiretrovirals. The inventors have thus attempted to measure in vitro the effects of I-152 with respect to the anti-HIV effectiveness of these molecules. This study was carried out using macrophages derived from human blood monocytes infected by the HIV-1/Ba-L strain and according to the methodology described by J. and T C. Chou for quantifying the synergistic effects, additive or antagonistic, between two molecules.

SMILES: CC(=O)N[C@@H](CS)C(=O)NCCSC(C)=O [I-152, N-(N-acetyl-L-cysteinyl)-S-acetylcysteamine]
- EC50 (HIV-1/Ba-L [1]): 38 µM
- synthesis of TNF-α (in words) (TNF-α): inhibits the synthesis of TNF-α
- combination index (CI) (HIV-1/Ba-L [2]): less than 1
